# Assay results reported in US20260139314A1, “COMPOSITION AND METHOD FOR PREDICTING SULFONYLUREA DEPENDENCY USING GIPR MARKER” (Seoul National University Hospital, priority 2022, published 2026).
# Assays:
# [1] = tested on: INS1 rat insulinoma cells; test: GIP-induced insulin secretion (ELISA); format: cell-based; conditions: GIPR inhibitor 100 nM, 24 h
# Method: INS1 rat insulinoma cells were transfected with 80-nM siRNA for Gipr and negative control.
# (c) ELISA: Insulin secretion induced by GIP treatment (50 nM for 1 hour) was attenuated by siGipr. • siGipr, siRNA for Gipr; siNS, siRNA for negative control; siRNA, small interfering RNA; NS, no significant difference
# (§1) INS1 rat insulinoma cells were treated with a GIPR inhibitor (rat GIP(3-30), 100 nM, 24 h) and the inhibition of insulin secretion by GIP was confirmed. Insulin secretion was stimulated with low-dose SU (50 nM glimepiride for 30 minutes) and measured using an ELISA kit.
# Experiments were conducted to suppress the expression of the rat Gipr gene, which shares the same gene sequence as human GIPR.
# [2] = tested on: INS1 rat insulinoma cells; test: Insulin secretion stimulated with low-dose SU (50 nM glimepiride, ELISA); format: cell-based; conditions: non-diabetic conditions; GIPR inhibitor 100 nM, 24 h; 50 nM glimepiride for 30 minutes
# Method: INS1 rat insulinoma cells were transfected with siGipr and siNS (80 nM) and stimulated for insulin secretion with low-dose SU (50 nM glimepiride for 30 minutes). Insulin secretion was measured using an ELISA kit.
# (a) Physiological condition (b) Diabetic condition simulated by pre-treating with 15-mM glucose and 150-μM palmitic acid for 24 hours (glucolipotoxicity).
# as §1
# Next, the SU response was examined based on Gipr suppression. […] However, under diabetic conditions—chronic exposure to high glucose and fatty acids (glucolipotoxicity)—Gipr suppression increased insulin secretion in response to low-dose SU (FIG. 4b).
substance,measurement,setting,value
rat GIP(3-30),Inhibition of insulin secretion by GIP,[1],confirmed
same,Insulin secretion by SU,[2],trend of enhanced insulin secretion
